US7763607B2, “Pharmaceutical compositions comprising CBx cannabinoid receptor modulators and potassium channel modulators” (Solvay Pharmaceuticals GmbH, priority 2006, dated 2010)
Where two headings read alike, the source gives them in different places.

How the values were obtained:
[1] = tested on: rat perifused pancreatic islets; assay: KATP opening effects through insulin secretion in rat perifused pancreatic islets; type: cell-based; settings: insulin secretion at 11 mM glucose; for % Inhibition 0-30: 0-30 minutes; for % Inhibition 30-60: 30-60 minutes
Method: The animals were maintained on a 12 h light-dark cycle (lights on 06.00-18.00 h) with free access to standard rodent diet (B&K Universal Ltd standard rat and mouse diet (BK 001P), Beekay Feeds, B&K Universal Ltd, Hull, East Riding of Yorkshire) and tap water. The rats were conditioned to this environment for at least one week before experimentation.
Experimental procedures: After the rats were sacrificed, the branch of the bile duct leading to the liver and the duodenal end of the duct in the pancreas were clamped and the pancreas distended by injection of ice-cold 0.9 mg/ml collagenase solution into the bile duct. […] Following incubation, 10 ml of cold buffer was added and the suspension shaken vigorously by hand for 1 min. The islets were allowed to settle for 5 min on ice and washed three times using ice-cold buffer. Well formed and good sized islets from 3 rats were hand-picked (under a low power microscope) and pooled and a final selection of islet transferred to the perifusion apparatus.
Two experiments were performed in parallel in two identical, independent sets of perifusion apparatus each consisting of sufficient number of chambers. Each chamber was loaded with 20 hand-picked islets. Islets were perifused for an initial 30 min period in media containing 4 mM glucose. Perifusate was then collected at 2 min intervals for the remainder of the experiment. […] Perifusate fractions were stored at −75° C. until required for insulin assay. Insulin content of fractions were assayed using a 96-well ELISA assay (Mercodia). Initial insulin assays were performed in triplicate on three pooled fractions from each chamber.
Data were initially expressed as a simple mean of the three experiments for insulin secretion (pg/islet/min) and multiple t-tests (against the corresponding vehicle time period) used to determine potential significant effects of treatments. Alternatively, data were also calculated as a % vehicle effect for each experimental day.

rat SUR2 = rat SUR2 (Rattus norvegicus, UniProt Q63563); assay: In vitro binding affinity to rodent KATP channels: SUR2 (COS cell membranes); settings: rat SUR2 transiently expressed in COS cells; isoform (2A/2B) not given
Method: Similar to SUR1 (see above) competitive binding experiments were performed to characterize the affinity of the test compounds for the binding sites for sulfonylureas and KCOs on rat SUR2A. The affinity for the KCO site on SUR2A was assessed by displacement of [^3H]P1075 (see Schwanstecher et al., 1998; Dörschner H. et al. Mol. Pharmacol. 55 (1999) 1060-1066 (Dörschner et al., 1999)). The affinity of [^3H]glibenclamide for the […] SUR2 isoforms, however, is too weak to allow direct detection of binding using filtration assays. Therefore, two strategies can be used to detect binding to the sulfonylurea site on SUR2A. First, binding can be detected indirectly through allosteric displacement of [^3H]P1075 (Dörschner et al., 1999). Second, a mutated SUR2A (SUR2AY1205S, see above) with increased affinity for [^3H]glibenclamide allowing direct displacement of this tracer can be used.
Membranes from COS-cells transiently expressing rat SUR2A were incubated in the presence of the radioligands with increasing concentrations of test compounds as described above. […] For each test compound […] displacement curves were measured (displacement of [^3H]P1075 from the rat isoform of the wild type receptor and displacement of [^3H]glibenclamide from the rat isoform of SUR2AY1205S). Per curve 9-15 distinct concentrations were tested covering the relevant range. […]

hamster SUR1 = target: T1, hamster SUR1 (Cricetus cricetus, UniProt Q09427); assay: biochemical; type: binding
T1 construct: expressed in transfected cells; host or cells: COS-1 cells (transient, pcDNA vector), membranes
Method: Competitive binding experiments were performed to characterize the affinity of the test compounds for the binding sites for sulfonylureas and KATP channel openers (KCOs) on hamster SUR1. To assess the affinity for the sulfonylurea site membranes from COS-cells transiently expressing hamster SUR1 were incubated in the presence of [^3H]glibenclamide with increasing concentrations of test compounds. […] Per curve 9-15 distinct concentrations were tested covering the relevant range. All measurements were repeated at least 5 times in independent experiments.
[^3H]glibenclamide (specific activity 51 Ci mmol^−1 was obtained from NEN (Dreieich, Germany). If suitable, stock solutions were prepared in dimethylsulfoxide with a final solvent concentration in the media below 1%.
SUR- or Kir6.x isoforms were used either subcloned in the pcDNA (hamster SUR1, mouse Kir6.2) or pCMV vector (rat SUR2A, SUR2B).
Rodent SUR-isoforms and KATP channels were transiently expressed in COS-1 cells as described in the literature. […]
The inhibition constant (Ki value) of the test substances was calculated from the respective IC50 value and was stated as the negative logarithmic value thereof (pKi).

[2] = tested on: glucose-stimulated insulin release; assay: Inhibition of glucose-stimulated insulin release (potency comparison in text); settings: relative to diazoxide

rat SUR2, sequence (Q63563 1-1503 Y1205S limits assumed, form open): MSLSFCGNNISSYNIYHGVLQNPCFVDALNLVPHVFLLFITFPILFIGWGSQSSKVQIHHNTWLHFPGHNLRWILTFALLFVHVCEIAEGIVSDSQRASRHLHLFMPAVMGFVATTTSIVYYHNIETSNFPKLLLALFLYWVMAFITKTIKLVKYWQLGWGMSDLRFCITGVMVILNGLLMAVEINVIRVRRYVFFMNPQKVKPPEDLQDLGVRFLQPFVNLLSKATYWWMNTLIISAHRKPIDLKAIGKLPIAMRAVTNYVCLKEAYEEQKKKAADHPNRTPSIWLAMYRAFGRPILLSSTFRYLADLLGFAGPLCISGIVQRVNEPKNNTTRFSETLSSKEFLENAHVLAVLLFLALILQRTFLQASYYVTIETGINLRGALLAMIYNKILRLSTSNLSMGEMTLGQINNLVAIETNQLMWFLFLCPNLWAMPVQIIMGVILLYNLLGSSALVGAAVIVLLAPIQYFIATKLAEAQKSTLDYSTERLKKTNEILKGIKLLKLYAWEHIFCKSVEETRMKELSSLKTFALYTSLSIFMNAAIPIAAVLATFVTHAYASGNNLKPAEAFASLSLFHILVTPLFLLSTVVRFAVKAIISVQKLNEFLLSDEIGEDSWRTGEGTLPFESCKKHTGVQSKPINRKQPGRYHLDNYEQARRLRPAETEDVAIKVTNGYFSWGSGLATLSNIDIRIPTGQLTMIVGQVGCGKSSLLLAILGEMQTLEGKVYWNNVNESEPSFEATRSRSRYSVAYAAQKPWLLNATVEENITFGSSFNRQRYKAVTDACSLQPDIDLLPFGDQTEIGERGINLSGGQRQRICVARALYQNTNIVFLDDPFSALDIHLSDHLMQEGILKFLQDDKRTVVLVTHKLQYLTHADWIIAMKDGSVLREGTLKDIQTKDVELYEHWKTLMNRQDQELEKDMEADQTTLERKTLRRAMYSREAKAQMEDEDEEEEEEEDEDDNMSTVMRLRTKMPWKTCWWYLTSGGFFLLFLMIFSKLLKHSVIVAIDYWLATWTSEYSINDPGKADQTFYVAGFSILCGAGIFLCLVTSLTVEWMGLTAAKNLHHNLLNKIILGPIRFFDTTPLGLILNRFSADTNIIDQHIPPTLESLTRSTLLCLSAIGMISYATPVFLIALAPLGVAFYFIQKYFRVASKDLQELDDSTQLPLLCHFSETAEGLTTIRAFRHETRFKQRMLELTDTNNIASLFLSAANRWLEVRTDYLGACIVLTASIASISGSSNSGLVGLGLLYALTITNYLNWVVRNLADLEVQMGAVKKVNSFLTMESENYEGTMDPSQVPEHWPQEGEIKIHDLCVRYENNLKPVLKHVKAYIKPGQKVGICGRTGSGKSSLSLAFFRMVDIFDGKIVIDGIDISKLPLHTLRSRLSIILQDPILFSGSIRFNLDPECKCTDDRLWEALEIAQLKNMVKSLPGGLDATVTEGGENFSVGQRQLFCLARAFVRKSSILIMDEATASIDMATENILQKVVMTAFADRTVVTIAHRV
T1 sequence (Q09427 whole entry): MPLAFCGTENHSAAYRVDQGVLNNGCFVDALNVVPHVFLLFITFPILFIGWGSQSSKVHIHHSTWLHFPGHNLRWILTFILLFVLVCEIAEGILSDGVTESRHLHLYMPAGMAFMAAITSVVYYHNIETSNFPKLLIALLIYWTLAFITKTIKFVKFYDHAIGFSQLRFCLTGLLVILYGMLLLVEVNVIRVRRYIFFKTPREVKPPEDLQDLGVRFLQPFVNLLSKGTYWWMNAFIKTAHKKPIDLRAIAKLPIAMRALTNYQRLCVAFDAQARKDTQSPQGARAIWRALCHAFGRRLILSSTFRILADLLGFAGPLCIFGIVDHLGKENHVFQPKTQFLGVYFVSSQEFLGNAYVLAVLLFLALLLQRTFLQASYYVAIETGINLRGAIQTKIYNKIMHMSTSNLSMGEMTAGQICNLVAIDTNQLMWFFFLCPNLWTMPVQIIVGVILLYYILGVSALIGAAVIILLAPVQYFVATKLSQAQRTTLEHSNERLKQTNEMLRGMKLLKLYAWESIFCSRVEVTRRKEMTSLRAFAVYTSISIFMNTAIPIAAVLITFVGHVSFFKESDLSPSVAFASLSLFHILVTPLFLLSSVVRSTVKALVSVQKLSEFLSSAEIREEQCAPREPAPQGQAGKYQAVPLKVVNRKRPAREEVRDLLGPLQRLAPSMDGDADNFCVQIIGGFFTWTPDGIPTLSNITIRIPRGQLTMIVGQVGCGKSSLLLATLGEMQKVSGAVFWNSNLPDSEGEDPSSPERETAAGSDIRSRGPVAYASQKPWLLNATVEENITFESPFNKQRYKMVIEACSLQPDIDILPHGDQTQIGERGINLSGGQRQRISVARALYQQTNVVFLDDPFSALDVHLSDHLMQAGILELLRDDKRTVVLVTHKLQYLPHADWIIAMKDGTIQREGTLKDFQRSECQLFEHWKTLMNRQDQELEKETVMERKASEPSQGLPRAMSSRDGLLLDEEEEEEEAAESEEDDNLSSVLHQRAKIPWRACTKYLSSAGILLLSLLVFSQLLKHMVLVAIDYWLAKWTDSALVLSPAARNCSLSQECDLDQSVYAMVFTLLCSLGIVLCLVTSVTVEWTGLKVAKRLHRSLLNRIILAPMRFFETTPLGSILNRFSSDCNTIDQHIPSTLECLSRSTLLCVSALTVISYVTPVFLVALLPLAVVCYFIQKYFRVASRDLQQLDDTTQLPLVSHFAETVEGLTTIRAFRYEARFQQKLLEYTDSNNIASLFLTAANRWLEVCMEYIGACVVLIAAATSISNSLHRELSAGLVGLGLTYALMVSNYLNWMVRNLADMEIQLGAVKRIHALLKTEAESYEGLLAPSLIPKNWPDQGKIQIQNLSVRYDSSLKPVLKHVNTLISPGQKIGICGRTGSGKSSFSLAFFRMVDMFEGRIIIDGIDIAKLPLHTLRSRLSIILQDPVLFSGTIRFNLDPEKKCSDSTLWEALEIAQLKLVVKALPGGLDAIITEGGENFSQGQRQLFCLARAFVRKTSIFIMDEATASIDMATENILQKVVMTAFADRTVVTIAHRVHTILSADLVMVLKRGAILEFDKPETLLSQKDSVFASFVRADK

Row | SMILES | % Inhibition 0-30 [1] | % Inhibition 30-60 [1] | further results
1 | CON/C(=N\S(=O)(=O)c1ccc(Cl)cc1)N1C[C@H](c2cccc(F)c2)C(c2ccc(Cl)cc2)=N1 (stereo in doubt) [4-Chloro-N-{[3-(4-chloro-phenyl)-4-(3-fluoro-phenyl)-4,5-dihydro-pyrazol-1-yl]-methoxyamino-methylene}-benzenesulfonamide] | 90% | 95% | 
2 | CCc1c(C(=O)NN2CCCCC2)nc(-c2ccccc2Cl)n1-c1ccc(Cl)cc1 [1-(4-Chloro-phenyl)-2-(2-chloro-phenyl)-5-ethyl-1H-imidazole-4-carboxylic acid piperidin-1-ylamide, reference compound] | 59% | 45% | 
3 | CSc1c(C(=O)NN2CCCCC2)nc(-c2ccccc2Cl)n1-c1ccc(Cl)cc1 [1-(4-Chloro-phenyl)-2-(2-chloro-phenyl)-5-methylsulfanyl-1H-imidazole-4-carboxylic acid piperidin-1-ylamide] | 56% | 36% | 
4 | CCCCC/C=C\C/C=C\C/C=C\C/C=C\CCCC(=O)OC(CO)CO [2-AG, Icosa-5,8,11,14-tetraenoic acid 2-hydroxy-1-hydroxymethyl-ethyl ester] |  |  | Affinity to SUR 2 (rat SUR2): 5.5
5 | CC1=NS(=O)(=O)c2cc(Cl)ccc2N1 [Diazoxide, diazoxide] |  |  | Ki (hamster SUR1; example in text on SUR binding, subunit not stated, read-out: pKi (converted)): 158 µM
6 | CCCC(C)(C)c1ccc2c(c1)OC(C)(C)[C@@H]1CC=C(C)C[C@@H]21 [JW133, 3-(1,1-dimethyl-butyl)-6,6,9-trimethyl-6a,7,10,10a-tetrahydro-6H-benzo[c]chromene] |  |  | Affinity to SUR 2 (rat SUR2): 3.6; Ki (hamster SUR1; hamster SUR1 transiently expressed in COS cells, read-out: Affinity to SUR 1 (converted)): 1.26 µM
7 | CN/C(=N\S(=O)(=O)N1CCOCC1)N1CC(c2ccccc2)C(c2ccc(Cl)cc2)=N1 (centres unmarked) [Mopholine-4-sulfonic acid [3-(4-chloro-phenyl)-4-phenyl-4,5-dihydro-pyrazol-1-yl]-methylamino-methyleneamide] | 83% | 91% | 
8 | CN/C(=N\S(=O)(=O)N(C)C)N1CC(c2cccc(F)c2)C(c2ccc(Cl)cc2)=N1 (centres unmarked) [N-{[3-(4-Chloro-phenyl)-4-(3-fluoro-phenyl)-4,5-dihydro-pyrazol-1-yl]-methylamino-methylene}-N,N-dimethyl-sulfonamide] | 72% | 77% | 
9 | CN/C(=N\S(=O)(=O)c1ccc(C(F)(F)F)cc1)N1CC(c2cccnc2)C(c2ccc(Cl)cc2)=N1 (centres unmarked) [N-{[3-(4-Chloro-phenyl)-4-pyridin-3-yl-4,5-dihydro-pyrazol-1-yl]-methylamino-methylene}-4-trifluoromethyl-benzenesulfonamide] | 58% | 31% | 
10 | CC1(NC2=Nc3cc(Cl)sc3S(=O)(=O)N2)CC1 [NN-414] |  |  | times more potent than diazoxide to inhibit glucose-stimulated insulin release [2]: more than 100 times
11 | CNC(=NS(=O)(=O)N1CCCCC1)C1=NN(c2ccc(Cl)cc2)C(c2ccccc2)C1 (centres unmarked) [Piperdine-1-sulfonic acid [1-(4-chloro-phenyl)-5-phenyl-4,5-dihydro-1H-pyrazol-3-yl]-methylamino-methyleneamide] | 84% | 47% | 
12 | CN(C)CCNC(=NS(=O)(=O)N1CCCCC1)N1CC(c2ccccc2)C(c2ccc(Cl)cc2)=N1 (centres unmarked) [Piperidin-1-sulfonic acid [3-(4-chloro-phenyl)-4-phenyl-4,5-dihydro-pyrazol-1-yl]-(2-dimethylamino-ethyl-amino)-methyleneamide] | 71% | 64% | 
13 | Cc1c(C(=O)NN2CCCCC2)nn(-c2ccc(Cl)cc2Cl)c1-c1ccc(Cl)cc1 [Rimonabant, 5-(4-Chloro-phenyl)-1-(2,4-dichloro-phenyl)-4-methyl-1H-pyrazole-3-carboxylic acid piperidin-1-ylamide, reference compound] | 22% | 18% | 
